# Experimental data: PubChem BioAssay (NCI)
#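 A five-concentration, 48-hour dose response in 96-well plates underlies each endpoint, interpolated linearly between surrounding concentrations. Here, GI50 denotes the concentration required for 50% inhibition of growth. TGI: total growth inhibition.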
# Experiments:
# Test in all cases: NCI-60 cell line screen, 48 h
# NCI/ADR-RES ovarian = system: NCI/ADR-RES ovarian
# CCRF-CEM leukemia = system: CCRF-CEM leukemia
# HL-60(TB) leukemia = system: HL-60(TB) leukemia
# OVCAR-8 ovarian = system: OVCAR-8 ovarian
# TK-10 renal = system: TK-10 renal
# MOLT-4 leukemia = system: MOLT-4 leukemia
# SF-539 CNS = system: SF-539 CNS
# KM12 colon = system: KM12 colon
# SK-MEL-2 melanoma = system: SK-MEL-2 melanoma
# U251 CNS = system: U251 CNS
# IGROV1 ovarian = system: IGROV1 ovarian
# OVCAR-3 ovarian = system: OVCAR-3 ovarian
# PC-3 prostate = system: PC-3 prostate
# ACHN renal = system: ACHN renal
# HOP-62 NSCLC = system: HOP-62 NSCLC
# SF-268 CNS = system: SF-268 CNS
# SNB-19 CNS = system: SNB-19 CNS
# A549 NSCLC = system: A549 NSCLC
# HCT-116 colon = system: HCT-116 colon
# NCI-H226 lung = system: NCI-H226 lung
# SF-295 CNS = system: SF-295 CNS
# HCC-2998 colon = system: HCC-2998 colon
# UACC-62 melanoma = system: UACC-62 melanoma
# SW-620 colon = system: SW-620 colon
# HT29 colon = system: HT29 colon
# DU-145 prostate = system: DU-145 prostate
# A498 renal = system: A498 renal
# HS 578T breast = system: HS 578T breast
# RXF 393 renal = system: RXF 393 renal
# COLO 205 colon = system: COLO 205 colon
# SK-OV-3 ovarian = system: SK-OV-3 ovarian
# UACC-257 melanoma = system: UACC-257 melanoma
# LOX IMVI melanoma = system: LOX IMVI melanoma
# MDA-MB-231 breast = system: MDA-MB-231 breast
# NCI-H522 lung = system: NCI-H522 lung
# K-562 leukemia = system: K-562 leukemia
# MCF7 breast = system: MCF7 breast
# T-47D breast = system: T-47D breast
# HCT-15 colon = system: HCT-15 colon
# EKVX NSCLC = system: EKVX NSCLC
# SNB-75 CNS = system: SNB-75 CNS
# MDA-MB-435 = system: MDA-MB-435
# SK-MEL-5 melanoma = system: SK-MEL-5 melanoma
# SK-MEL-28 melanoma = system: SK-MEL-28 melanoma
# NCI-H460 lung = system: NCI-H460 lung
# 786-0 renal = system: 786-0 renal
# MALME-3M melanoma = system: MALME-3M melanoma
# M14 melanoma = system: M14 melanoma
# SN12C renal = system: SN12C renal
# BT-549 breast = system: BT-549 breast
# UO-31 renal = system: UO-31 renal
# HOP-92 NSCLC = system: HOP-92 NSCLC
# RPMI-8226 leukemia = system: RPMI-8226 leukemia
# OVCAR-4 ovarian = system: OVCAR-4 ovarian
# OVCAR-5 ovarian = system: OVCAR-5 ovarian
# CAKI-1 renal = system: CAKI-1 renal
# NCI-H23 lung = system: NCI-H23 lung
smiles,measurement,setting,value
CN1CCN(c2ccc(N3Cc4ccccc4OC4=C3C(=O)c3c(O)ccc(O)c3C4=O)cn2)CC1,GI50,NCI/ADR-RES ovarian,0.403 µM
same,TGI,NCI/ADR-RES ovarian,> 100 µM
same,GI50,CCRF-CEM leukemia,0.0972 µM
same,TGI,CCRF-CEM leukemia,> 33.5 µM
same,GI50,HL-60(TB) leukemia,0.135 µM
same,TGI,HL-60(TB) leukemia,0.445 µM
same,GI50,OVCAR-8 ovarian,0.37 µM
same,TGI,OVCAR-8 ovarian,4.57 µM
same,GI50,TK-10 renal,0.26 µM
same,TGI,TK-10 renal,0.825 µM
same,GI50,MOLT-4 leukemia,0.0895 µM
same,TGI,MOLT-4 leukemia,5.38 µM
same,GI50,SF-539 CNS,0.233 µM
same,TGI,SF-539 CNS,0.595 µM
same,GI50,KM12 colon,1.18 µM
same,TGI,KM12 colon,3.6 µM
same,GI50,SK-MEL-2 melanoma,0.738 µM
same,TGI,SK-MEL-2 melanoma,2.23 µM
same,GI50,U251 CNS,0.397 µM
same,TGI,U251 CNS,1.59 µM
same,GI50,IGROV1 ovarian,0.272 µM
same,TGI,IGROV1 ovarian,1.01 µM
same,GI50,OVCAR-3 ovarian,0.167 µM
same,TGI,OVCAR-3 ovarian,0.469 µM
same,GI50,PC-3 prostate,0.385 µM
same,TGI,PC-3 prostate,1.63 µM
same,GI50,ACHN renal,0.0574 µM
same,TGI,ACHN renal,0.203 µM
same,GI50,HOP-62 NSCLC,1.55 µM
same,TGI,HOP-62 NSCLC,4.88 µM
same,GI50,SF-268 CNS,0.58 µM
same,TGI,SF-268 CNS,2.43 µM
same,GI50,SNB-19 CNS,0.742 µM
same,TGI,SNB-19 CNS,2.57 µM
same,GI50,A549 NSCLC,2.18 µM
same,TGI,A549 NSCLC,6.73 µM
same,GI50,HCT-116 colon,0.113 µM
same,TGI,HCT-116 colon,0.326 µM
same,GI50,NCI-H226 lung,2.26 µM
same,TGI,NCI-H226 lung,12 µM
same,GI50,SF-295 CNS,1.87 µM
same,TGI,SF-295 CNS,5 µM
same,GI50,HCC-2998 colon,1.28 µM
same,TGI,HCC-2998 colon,2.78 µM
same,GI50,UACC-62 melanoma,0.33 µM
same,TGI,UACC-62 melanoma,1.04 µM
same,GI50,SW-620 colon,0.196 µM
same,TGI,SW-620 colon,0.635 µM
same,GI50,HT29 colon,0.209 µM
same,TGI,HT29 colon,0.562 µM
same,GI50,DU-145 prostate,0.36 µM
same,TGI,DU-145 prostate,1.29 µM
same,GI50,A498 renal,2.15 µM
same,TGI,A498 renal,4.94 µM
same,GI50,HS 578T breast,0.876 µM
same,TGI,HS 578T breast,> 100 µM
same,GI50,RXF 393 renal,0.164 µM
same,TGI,RXF 393 renal,0.346 µM
same,GI50,COLO 205 colon,0.126 µM
same,TGI,COLO 205 colon,0.302 µM
same,GI50,SK-OV-3 ovarian,2.92 µM
same,TGI,SK-OV-3 ovarian,11.4 µM
same,GI50,UACC-257 melanoma,0.426 µM
same,TGI,UACC-257 melanoma,1.17 µM
same,GI50,LOX IMVI melanoma,0.215 µM
same,TGI,LOX IMVI melanoma,0.618 µM
same,GI50,MDA-MB-231 breast,0.275 µM
same,TGI,MDA-MB-231 breast,0.706 µM
same,GI50,NCI-H522 lung,0.0322 µM
same,TGI,NCI-H522 lung,0.134 µM
same,GI50,K-562 leukemia,0.0713 µM
same,TGI,K-562 leukemia,2.53 µM
same,GI50,MCF7 breast,0.149 µM
same,TGI,MCF7 breast,0.585 µM
same,GI50,T-47D breast,0.184 µM
same,TGI,T-47D breast,0.706 µM
same,GI50,HCT-15 colon,0.186 µM
same,TGI,HCT-15 colon,0.638 µM
same,GI50,EKVX NSCLC,0.244 µM
same,TGI,EKVX NSCLC,1.24 µM
same,GI50,SNB-75 CNS,0.907 µM
same,TGI,SNB-75 CNS,5.4 µM
same,GI50,MDA-MB-435,0.234 µM
same,TGI,MDA-MB-435,0.575 µM
same,GI50,SK-MEL-5 melanoma,1.27 µM
same,TGI,SK-MEL-5 melanoma,2.75 µM
same,GI50,SK-MEL-28 melanoma,0.282 µM
same,TGI,SK-MEL-28 melanoma,0.762 µM
same,GI50,NCI-H460 lung,1.17 µM
same,TGI,NCI-H460 lung,3.83 µM
same,GI50,786-0 renal,0.191 µM
same,TGI,786-0 renal,0.404 µM
same,GI50,MALME-3M melanoma,0.0893 µM
same,TGI,MALME-3M melanoma,0.298 µM
same,GI50,M14 melanoma,0.244 µM
same,TGI,M14 melanoma,0.651 µM
same,GI50,SN12C renal,0.316 µM
same,TGI,SN12C renal,1.1 µM
same,GI50,BT-549 breast,0.251 µM
same,TGI,BT-549 breast,0.723 µM
same,GI50,UO-31 renal,0.163 µM
same,TGI,UO-31 renal,0.557 µM
same,GI50,HOP-92 NSCLC,0.23 µM
same,TGI,HOP-92 NSCLC,0.499 µM
same,GI50,RPMI-8226 leukemia,0.26 µM
same,TGI,RPMI-8226 leukemia,0.901 µM
same,GI50,OVCAR-4 ovarian,0.264 µM
same,TGI,OVCAR-4 ovarian,0.855 µM
same,GI50,OVCAR-5 ovarian,0.692 µM
same,TGI,OVCAR-5 ovarian,1.95 µM
CCN(CC)CCNC(=O)c1cn2ncnc(Oc3ccc(NC(=O)Nc4ccc(Cl)c(C(F)(F)F)c4)cc3)c2c1C,GI50,NCI/ADR-RES ovarian,1.98 µM
same,TGI,NCI/ADR-RES ovarian,3.82 µM
same,GI50,CAKI-1 renal,1.67 µM
same,TGI,CAKI-1 renal,3.07 µM
same,GI50,NCI-H23 lung,1.8 µM
same,TGI,NCI-H23 lung,3.49 µM
same,GI50,TK-10 renal,2.11 µM
same,TGI,TK-10 renal,3.92 µM
same,GI50,MOLT-4 leukemia,0.738 µM
same,TGI,MOLT-4 leukemia,2.4 µM
same,GI50,SF-539 CNS,1.1 µM
same,TGI,SF-539 CNS,2.32 µM
same,GI50,KM12 colon,1.69 µM
same,TGI,KM12 colon,3.25 µM
same,GI50,SK-MEL-2 melanoma,1.97 µM
same,TGI,SK-MEL-2 melanoma,4.15 µM
same,GI50,IGROV1 ovarian,1.69 µM
same,TGI,IGROV1 ovarian,3.24 µM
same,GI50,OVCAR-3 ovarian,1.93 µM
same,TGI,OVCAR-3 ovarian,3.51 µM
same,GI50,PC-3 prostate,1.31 µM
same,TGI,PC-3 prostate,2.8 µM
same,GI50,ACHN renal,1.73 µM
same,TGI,ACHN renal,3.1 µM
same,GI50,HOP-62 NSCLC,1.76 µM
same,TGI,HOP-62 NSCLC,3.56 µM
same,GI50,SF-268 CNS,1.59 µM
same,TGI,SF-268 CNS,3.14 µM
same,GI50,SNB-19 CNS,1.86 µM
same,TGI,SNB-19 CNS,3.27 µM
same,GI50,NCI-H226 lung,1.76 µM
same,TGI,NCI-H226 lung,3.89 µM
same,GI50,SF-295 CNS,1.8 µM
same,TGI,SF-295 CNS,3.33 µM
same,GI50,HCC-2998 colon,2.24 µM
same,TGI,HCC-2998 colon,3.92 µM
same,GI50,UACC-62 melanoma,1.81 µM
same,TGI,UACC-62 melanoma,3.43 µM
same,GI50,SW-620 colon,2.23 µM
same,TGI,SW-620 colon,3.96 µM
same,GI50,DU-145 prostate,1.69 µM
same,TGI,DU-145 prostate,3.1 µM
same,GI50,A498 renal,1.39 µM
same,TGI,A498 renal,2.74 µM
same,GI50,HS 578T breast,1.49 µM
same,TGI,HS 578T breast,3.92 µM
same,GI50,RXF 393 renal,1.49 µM
same,TGI,RXF 393 renal,3.02 µM
same,GI50,COLO 205 colon,1.78 µM
same,TGI,COLO 205 colon,3.56 µM
same,GI50,SK-OV-3 ovarian,1.85 µM
same,TGI,SK-OV-3 ovarian,3.46 µM
same,GI50,UACC-257 melanoma,1.63 µM
same,TGI,UACC-257 melanoma,3.42 µM
same,GI50,LOX IMVI melanoma,1.36 µM
same,TGI,LOX IMVI melanoma,2.82 µM
same,GI50,MDA-MB-231 breast,1.87 µM
same,TGI,MDA-MB-231 breast,3.52 µM
same,GI50,K-562 leukemia,0.383 µM
same,TGI,K-562 leukemia,1.65 µM
same,GI50,MCF7 breast,1.22 µM
same,TGI,MCF7 breast,2.77 µM
same,GI50,T-47D breast,1.8 µM
same,TGI,T-47D breast,4.42 µM
same,GI50,HCT-15 colon,1.62 µM
same,TGI,HCT-15 colon,3.1 µM
same,GI50,EKVX NSCLC,1.69 µM
same,TGI,EKVX NSCLC,3.12 µM
same,GI50,SNB-75 CNS,0.0645 µM
same,TGI,SNB-75 CNS,1.52 µM
same,GI50,MDA-MB-435,1.63 µM
same,TGI,MDA-MB-435,3 µM
same,GI50,SK-MEL-5 melanoma,1.76 µM
same,TGI,SK-MEL-5 melanoma,3.22 µM
same,GI50,SK-MEL-28 melanoma,1.48 µM
same,TGI,SK-MEL-28 melanoma,2.8 µM
same,GI50,NCI-H460 lung,1.72 µM
same,TGI,NCI-H460 lung,3.32 µM
same,GI50,MALME-3M melanoma,1.29 µM
same,TGI,MALME-3M melanoma,2.84 µM
same,GI50,SN12C renal,1.6 µM
same,TGI,SN12C renal,3.14 µM
same,GI50,BT-549 breast,1.61 µM
same,TGI,BT-549 breast,3.09 µM
same,GI50,UO-31 renal,1.72 µM
same,TGI,UO-31 renal,3.15 µM
same,GI50,HOP-92 NSCLC,1.19 µM
same,TGI,HOP-92 NSCLC,2.69 µM
same,GI50,OVCAR-4 ovarian,1.79 µM
same,TGI,OVCAR-4 ovarian,3.42 µM
same,GI50,OVCAR-5 ovarian,1.99 µM
same,TGI,OVCAR-5 ovarian,3.48 µM
